The values below are quoted from earlier work in patent US20070196463A1, “Enteric Soft Gelatin Capsule Containing Esomerpazole And Method Of Preparation” (Natco Pharma Limited, priority 2004, published 2007).

Turning to `COc1ccc2nc([S@@+]([O-])Cc3ncc(C)c(OC)c3C)[nH]c2c1` [esomeprazole], where the note is “human testing of enantiomers of omeprazole”, the “activity of the enantiomer in human testing” value was “more active”. Further, the inter-individual variability entry (human, due to more consistent pharmacokinetics) is given as “reduced”.
